In this assay the target is T1, RORc ligand binding domain (Homo sapiens, UniProt P51449).
T1 construct: host or cells: E. coli
T1 sequence (P51449 269-508 limits assumed): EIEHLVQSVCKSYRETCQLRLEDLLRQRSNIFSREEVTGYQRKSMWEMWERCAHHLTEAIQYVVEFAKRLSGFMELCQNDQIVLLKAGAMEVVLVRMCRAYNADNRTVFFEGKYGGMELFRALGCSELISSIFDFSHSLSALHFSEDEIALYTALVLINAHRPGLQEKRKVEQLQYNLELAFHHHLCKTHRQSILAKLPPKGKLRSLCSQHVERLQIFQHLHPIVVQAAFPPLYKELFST
As to the kind of experiment: In vitro RORc ligand binding assay (25-[3H]hydroxycholesterol displacement, filter binding). The protocol: This assay was used to determine a compound's potency in inhibiting activity of RORc by determining, Kiapp, IC50, or percent inhibition values.
On day of the assay, 100 uL of 0.05% CHAPS (in deionized H2O) was added to all wells of the GFB Unifilter plate and allowed soak for 1 h. A wash buffer of 50 mM HEPES (pH 7.4), 150 mM NaCl, and 5 mM MgCl2 was prepared to wash the filter plate. To prepare an assay buffer, BSA was added to the wash buffer to reach 0.01% and DTT was added to reach 1 mM.
The 20× compound stocks were diluted in DMSO with Assay Buffer 4-fold to reach 5× the final test concentration in 25% DMSO (10 uL compound+30 uL Assay Buffer). Solutions were mixed by aspiration several times with a pipette set on 50 uL volume. For the assay, 10 uL of 5× compound stock solutions in 25% DMSO were added to the assay plate in duplicate.
For two point screening, 10 mM stock compound solutions were diluted in DMSO to obtain 200 uM (20× the high test concentration) and then diluted 10-fold further to reach 20 uM (20× the low test concentration). The 20× stocks were diluted 4-fold with Assay Buffer (10 uL compound+30 uL Assay Buffer) to reach 5× the test concentrations (50 uM and 5 uM) and 10 uL were added to two assay plates for the duplicate wells. With each concentration tested on 2 plates, each set of 80 compounds used 4 assay plates (1 uM and 10 uM, with n=2).
For 25-hydroxycholesterol in 25% DMSO/75% Assay Buffer; 10 uL per well was used for NSB samples. Wells for Total Binding and No Receptor sample determination contained 10 uL of 25% DMSO/75% Assay Buffer per well.
Add 20 uL to all wells to reach 6 nM final concentration in the assay.
Stock receptor solution was diluted in assay buffer to obtain 1.5 ug/mL in Assay Buffer. 20 uL was added to all wells. For No Receptor samples, 20 uL Assay Buffer was substituted for receptor solution.
Assay plates were 96-well polypropylene V-bottom plates. 10 uL of 5× compound in 25% DMSO/75% Assay Buffer was added to Test wells. 10 uL of 25% DMSO/75% Assay Buffer was added to Total Binding or No Receptor wells. 10 uL of 5 uM 25-hydroxycholesterol in 25% DMSO/75% Assay Buffer was added to NSB wells. […] 20 uL of 1.5 ug/mL RORc receptor was added to wells (or 40 uL Assay Buffer to No R wells). Following addition to the wells, the plates were incubated 3 h at 25° C.
Using a Packard Filtermate Harvester, the filter plate were washed 4 times following transfer of the incubated samples. Plates were dry-filtered completely (2 h at 50° C. or overnight at room temperature). 50 uL Microscint 0 was added to all wells and read on Topcount protocol Inverted.
Take `COC(=O)N1CCO[C@@H]([C@@]23CC[C@@H](c4cc(-c5c(F)cccc5F)nnc42)C3(C)C)C1` [Compound 87, (S)-methyl 2-((5R,8R)-3-(2,6-difluorophenyl)-9,9-dimethyl-5,6,7,8-tetrahydro-5,8-methanocinnolin-8-yl)morpholine-4-carboxylate]: the IC50 worked out at 36.8 nM.
`Cc1cc(O[C@@]23CC[C@@H](c4cc(-c5c(F)cccc5F)nnc42)C3(C)C)ccn1` [Compound 25, (5S,8R)-3-(2,6-difluorophenyl)-9,9-dimethyl-8-((2-methylpyridin-4-yl)oxy)-5,6,7,8-tetrahydro-5,8-methanocinnoline]: the IC50 stood at 844 nM.
Compound `CC1(C)[C@H]2CC[C@]1([C@H]1CCCN(C(=O)NCCS(C)(=O)=O)C1)c1nnc(-c3c(F)cccc3F)cc12` [Compound 158, 3-[5-(2,6-difluorophenyl)-11,11-dimethyl-3,4-diazatricyclo[6.2.1.02,7]undeca-2,4,6-trien-1-yl]-N-(2-methylsulfonylethyl)piperidine-1-carboxamide] returned an IC50 of 13 nM.
On to `CC[C@@H](O[C@@]12CC[C@@H](c3cc(-c4c(F)cccc4F)nnc31)C2(C)C)C(=O)NC(CO)CO` [Compound 53, (R)-2-(((5S,8R)-3-(2,6-difluorophenyl)-9,9-dimethyl-5,6,7,8-tetrahydro-5,8-methanocinnolin-8-yl)oxy)-N-(1,3-dihydroxypropan-2-yl)butanamide], for which the IC50 was 116 nM.
With `Cc1n[nH]c(N2CCO[C@@H]([C@@]34CC[C@@H](c5cc(-c6c(F)cccc6F)nnc53)C4(C)C)C2)n1` [Compound 93, (S)-2-((5R,8R)-3-(2,6-difluorophenyl)-9,9-dimethyl-5,6,7,8-tetrahydro-5,8-methanocinnolin-8-yl)-4-(3-methyl-1H-1,2,4-triazol-5-yl)morpholine], the half-maximal inhibitory concentration (IC50) was determined as 191 nM.
Next, `CN(C)C(=O)N1CCO[C@H]([C@@]23CC[C@@H](c4cc(-c5c(F)cccc5F)nnc42)C3(C)C)C1` [Compound 86, (R)-2-((5R,8R)-3-(2,6-difluorophenyl)-9,9-dimethyl-5,6,7,8-tetrahydro-5,8-methanocinnolin-8-yl)-N,N-dimethylmorpholine-4-carboxamide]: 473 nM; `CC1(C)[C@H]2CC[C@]1([C@@H]1CN(c3ncn[nH]3)CCO1)c1nnc(-c3c(F)cccc3F)cc12` [Compound 155, 2-[5-(2,6-difluorophenyl)-11,11-dimethyl-3,4-diazatricyclo[6.2.1.02,7]undeca-2,4,6-trien-1-yl]-4-(1H-1,2,4-triazol-5-yl)morpholine]: 60 nM; `CC1(C)[C@H]2CC[C@]1([C@H]1CCCN(c3cccc(=O)[nH]3)C1)c1nnc(-c3c(F)cccc3F)cc12` [Compound 174, 6-[3-[5-(2,6-difluorophenyl)-11,11-dimethyl-3,4-diazatricyclo[6.2.1.02,7]undeca-2,4,6-trien-1-yl]-1-piperidyl]-1H-pyridin-2-one]: 36 nM.
As to `CC1(C)[C@H]2CC[C@]1([C@@H]1CN(C(=O)c3cnco3)CCO1)c1nnc(-c3c(F)cccc3F)cc12` [Compound 90, ((R)-2-((5R,8R)-3-(2,6-difluorophenyl)-9,9-dimethyl-5,6,7,8-tetrahydro-5,8-methanocinnolin-8-yl)morpholino)(oxazol-5-yl)methanone], the IC50 is 74.5 nM.
As for `CC1(C)[C@H]2CC[C@]1([C@H]1CNCCO1)c1nnc(-c3c(F)cccc3F)cc12` [Compound 70, (S)-2-((5R,8R)-3-(2,6-difluorophenyl)-9,9-dimethyl-5,6,7,8-tetrahydro-5,8-methanocinnolin-8-yl)morpholine], the IC50 worked out at 367 nM.
Next, `CC1(C)[C@H]2CC[C@]1([C@@H]1CN(S(C)(=O)=O)CCO1)c1nnc(-c3c(F)cccc3F)cc12` [Compound 65, (R)-2-((5R,8R)-3-(2,6-difluorophenyl)-9,9-dimethyl-5,6,7,8-tetrahydro-5,8-methanocinnolin-8-yl)-4-(methylsulfonyl)morpholine]: 224 nM; `CC1(C)[C@H]2CC[C@]1(Oc1ncccn1)c1nnc(-c3c(F)cccc3F)cc12` [Compound 14, (5S,8R)-3-(2,6-difluorophenyl)-9,9-dimethyl-8-(pyrimidin-2-yloxy)-5,6,7,8-tetrahydro-5,8-methanocinnoline]: 84 nM.
The figure for `CC[C@@H](O[C@@]12CC[C@@H](c3cc(-c4c(F)cccc4F)nnc31)C2(C)C)C(=O)NNC(C)=O` [Compound 58, (R)-N′-acetyl-2-(((5S,8R)-3-(2,6-difluorophenyl)-9,9-dimethyl-5,6,7,8-tetrahydro-5,8-methanocinnolin-8-yl)oxy)butanehydrazide] is 105 nM.
Next, `CC1(C)[C@H]2CC[C@]1([C@H]1CCCN(C(=O)NC3CC(O)C3)C1)c1nnc(-c3c(F)cccc3F)cc12` (stereo in doubt) [Compound 148, 3-[5-(2,6-difluorophenyl)-11,11-dimethyl-3,4-diazatricyclo[6.2.1.02,7]undeca-2,4,6-trien-1-yl]-N-(3-hydroxycyclobutyl)piperidine-1-carboxamide]: 370 nM; `CC[C@@H](O[C@@]12CC[C@@H](c3cc(-c4c(F)cccc4F)nnc31)C2(C)C)C(=O)NCc1nnc(C)o1` [Compound 59, (R)-2-(((5S,8R)-3-(2,6-difluorophenyl)-9,9-dimethyl-5,6,7,8-tetrahydro-5,8-methanocinnolin-8-yl)oxy)-N-((5-methyl-1,3,4-oxadiazol-2-yl)methyl)butanamide]: 45.3 nM; `CC1(C)[C@H]2CC[C@]1([C@H]1CN(C(=O)c3c[nH]c(=O)cn3)CCO1)c1nnc(-c3c(F)cccc3F)cc12` [Compound 119, 5-[2-[5-(2,6-difluorophenyl)-11,11-dimethyl-3,4-diazatricyclo[6.2.1.02,7]undeca-2,4,6-trien-1-yl]morpholine-4-carbonyl]-1H-pyrazin-2-one]: 21 nM.
`CC[C@@H](O[C@@]12CC[C@@H](c3cc(-c4c(F)cccc4F)nnc31)C2(C)C)C(=O)N(C)CCOC` [Compound 100, (R)-2-(((5S,8R)-3-(2,6-difluorophenyl)-9,9-dimethyl-5,6,7,8-tetrahydro-5,8-methanocinnolin-8-yl)oxy)-N-(2-methoxyethyl)-N-methylbutanamide] registered an IC50 of 46.4 nM.
The figure for `CC1(C)[C@H]2CC[C@]1([C@H]1CCCN(C(=O)c3ccc(=O)[nH]n3)C1)c1nnc(-c3c(F)cccc3F)cc12` [Compound 125, 3-[3-[5-(2,6-difluorophenyl)-11,11-dimethyl-3,4-diazatricyclo[6.2.1.02,7]undeca-2,4,6-trien-1-yl]piperidine-1-carbonyl]-1H-pyridazin-6-one] is 74 nM; for `CC[C@@H](O[C@@]12CC[C@@H](c3cc(-c4c(F)cccc4F)nnc31)C2(C)C)C(=O)NCC(C)(C)O` [Compound 52, (R)-2-(((5S,8R)-3-(2,6-difluorophenyl)-9,9-dimethyl-5,6,7,8-tetrahydro-5,8-methanocinnolin-8-yl)oxy)-N-(2-hydroxy-2-methylpropyl)butanamide] it is 49.5 nM; for `CC1(C)[C@H]2CC[C@]1([C@H]1CN(C(=O)c3cnco3)CCO1)c1nnc(-c3c(F)cccc3F)cc12` [Compound 94, ((S)-2-((5R,8R)-3-(2,6-difluorophenyl)-9,9-dimethyl-5,6,7,8-tetrahydro-5,8-methanocinnolin-8-yl)morpholino)(oxazol-5-yl)methanone] it is 76.3 nM.
Next, `CC1(C)[C@H]2CC[C@]1(OS(=O)(=O)C(F)(F)F)c1nnc(-c3c(F)cccc3F)cc12` [Compound 6, (5S,8R)-3-(2,6-difluorophenyl)-9,9-dimethyl-5,6,7,8-tetrahydro-5,8-methanocinnolin-8-yl trifluoromethanesulfonate]: 6 nM.
The figure for `C[C@H](O)C(=O)N(C)[C@@]12CC[C@@H](c3cc(-c4c(F)cccc4F)nnc31)C2(C)C` [Compound 1, (S)-N-((5R,8R)-3-(2,6-difluorophenyl)-9,9-dimethyl-5,6,7,8-tetrahydro-5,8-methanocinnolin-8-yl)-2-hydroxy-N-methylpropanamide] is 920 nM.

What is called IC50 is the concentration that gives 50% inhibition. Higher therefore signals weaker potency in that assay.

For the origin of these results see patent US9994551B2, “Pyridazine derivatives as RORc modulators” (Genentech, Inc., priority 2015, dated 2018).
